Measurements taken from PMC8348019.

assay: head-to-tail lactamisation of linear tetramer (amino acid/peptoid hybrids) with HATU (1.5 equiv), DIPEA (8 equiv); dropwise addition of linear precursor to HATU solution; conditions: the molecule shown is the open-chain precursor; 12-membered ring; DMF; 5.0 mM; 21.0 °C; 30.0 h; 10 steps

| SMILES | ring closure, overall yield |
| --- | --- |
| CC[C@H](C)[C@H](N)C(=O)N1CCC[C@@H]1C(=O)N[C@@H](COC(C)(C)C)C(=O)N[C@@H](Cc1ccccc1)C(=O)O [H-Ile-D-Pro-Ser(tBu)-Phe-OH] | 46% |
| CCCC[C@H](NC(=O)[C@H]1CCCN1C(=O)[C@@H](N)CC(C)C)C(=O)N[C@@H](Cc1c[nH]c2ccccc12)C(=O)O [H-Leu-D-Pro-Nle-Trp-OH] | 36% |
| CCCC[C@H](NC(=O)[C@H]1CCCN1C(=O)[C@@H](N)[C@@H](C)CC)C(=O)N[C@@H](Cc1c[nH]c2ccccc12)C(=O)O [H-Ile-D-Pro-Nle-Trp-OH] | 22% |
| C=CCN(CC(=O)N[C@@H](Cc1ccccc1)C(=O)O)C(=O)[C@H]1CCCN1C(=O)CNC1CCCCC1 [H-(N-cyclohexyl)Gly-D-Pro-(N-allyl)Gly-Phe-OH] | 50% |
| CCCC[C@H](NC(=O)[C@H]1CCCN1C(=O)[C@@H](N)CC(C)C)C(=O)N[C@@H](Cc1ccccc1)C(=O)O [H-Leu-D-Pro-Nle-Phe-OH] | 56% |
| CCCC[C@H](NC(=O)[C@H]1CCCN1C(=O)[C@@H](N)Cc1ccccc1)C(=O)N[C@@H](Cc1c[nH]c2ccccc12)C(=O)O [H-Phe-D-Pro-Nle-Trp-OH] | 38% |
